Results from patent US9902737B2, “Sweet flavor modifier” (SENOMYX, INC., priority 2010, dated 2018).
Where “and” joins values, the source holds several entries; their conditions need not be identical. Equal values may be shown once.

Assays:
human panelists [1] = test: Sweet flavor enhancement, human panelists, paired comparison test; type: in vivo
Procedure: Test samples containing experimental compounds are presented in pairs to the panelist and they are asked to determine which of the sample is sweeter. A group of 10-16 or more panelists participated in each test. Subjects refrained from eating or drinking (except water) for at least 1 hour prior to the test. Subjects rinsed with water several times to clean the mouth.
All samples are prepared with ethanol to ensure dispersion of the compound in solution. This includes samples without compound; all solutions are balanced for 0.1% ethanol.
Samples are also prepared with low sodium buffer (pH 7.1) in place of water. Buffer contains 0.952 g of KCl, 5.444 g of Na2HPO4, and 0.952 g of KH2PO4 in 40 L of DIUF water. Sample volumes are usually 20 ml.
In one paired comparison test, the panelist is presented with two different samples and asked to identify the sample which is sweeter. The samples within a paired comparison test are presented in a randomized, counterbalanced order. Panelists have up to a 1 minute delay between taste tests to clear the mouth of any tastes.
Binomial probability tables are used to determine the probability of the correct number of responses occurring for each test at alpha=0.05

human panelists [2] = test: Sweet flavor enhancement, human panelists, scaling test; type: in vivo; set-up: key: 0 = no sweetness, 15 = sweetness equal to 15% sucrose; conditions: 0-15 line scale
Excerpt: Test samples containing experimental compounds were compared to a dose-response curve for perceived sweetness intensity of sweeteners (sucralose, sucrose, fructose and other sweeteners) concentrations to determine equivalent sweetness intensity.
A group of eight or more panelists tasted solutions including sweeteners at various concentrations, as well as the experimental compound both with and without added sweetener. Panelists then rated sweetness intensity of all samples on a structured horizontal line scale, anchored from 0 to 15, where 0 equals no sweetness and 15 equals equivalent sweetness to a 15% sucrose sample. Scores for sweetness intensity were averaged across panelists. Then using the average scores and/or equation of the line for the sweetener dose-response curve, equivalent sweetness concentrations were determined for the samples containing experimental compounds.
Subjects had been previously familiarized with the key attribute taste and were trained to use the 0 to 15 point line scale. Subjects refrained from eating or drinking (except water) for at least 1 hour prior to the test. Subjects ate a cracker and rinsed with water several times to clean the mouth.
Sweetener solutions are provided at a wide range of concentrations such as 100 ppm, 200 ppm, 300 ppm, 400 ppm, and 500 ppm for sucralose, or between 0% and 12% for sucrose or fructose, in order to create a dose-response curve. Samples containing experimental compound were prepared both alone and in a 100 ppm sucralose solution or a 6% sucrose or fructose solution. All samples were made up in low sodium buffer pH 7.1. In order to aid dispersion, solutions can be made up in 0.1% ethanol.
The solutions were dispensed in 20 ml volumes into 1 oz. sample cups and served to the subjects at room temperature. All samples were presented in randomized counterbalanced order to reduce response bias. Further, two sessions of testing may be used to check panel precision.
Subjects tasted each sample individually and rate sweetness intensity on the line scale prior to tasting the next sample. All samples were expectorated. Subjects may retaste the samples but can only use the volume of sample given. Subjects must rinse with water between samples. Eating an unsalted cracker between samples may be required depending on the samples tasted.
The scores for each sample were averaged across subjects and standard error was calculated. The dose-response curve was plotted graphically, and this may be used to ensure the panel is rating accurately; i.e., increasing the concentration of sucralose should correspond to increased average scores for sweetness. A 2-way ANOVA (factors being samples and panelists) and multiple comparison tests (such as Tukey's Honestly Significant Difference test) can be used to determine differences among samples and/or panelists. A 3-way ANOVA, with sessions as the third factor, can be used to determine if there is any difference in the ratings between sessions.

hT1R2/R3 = molecular target: T1, hT1R2/R3 (Homo sapiens, UniProt Q7RTX0+Q8TE23); test: Screening for sweet enhancers: sucrose EC50 shift, FLIPR calcium assay; type: cell-based; conditions: sucrose EC50 without enhancer / with enhancer; test compound 50 μM; hT1R2/R3-HEK293 Ga15 cells; Tables A and B
T1 construct: expressed in transfected cells; host or cells: HEK293 cells expressing Ga15 (hT1R2/R3-HEK293 Ga15)
T1 sequence (Q8TE23 20-839): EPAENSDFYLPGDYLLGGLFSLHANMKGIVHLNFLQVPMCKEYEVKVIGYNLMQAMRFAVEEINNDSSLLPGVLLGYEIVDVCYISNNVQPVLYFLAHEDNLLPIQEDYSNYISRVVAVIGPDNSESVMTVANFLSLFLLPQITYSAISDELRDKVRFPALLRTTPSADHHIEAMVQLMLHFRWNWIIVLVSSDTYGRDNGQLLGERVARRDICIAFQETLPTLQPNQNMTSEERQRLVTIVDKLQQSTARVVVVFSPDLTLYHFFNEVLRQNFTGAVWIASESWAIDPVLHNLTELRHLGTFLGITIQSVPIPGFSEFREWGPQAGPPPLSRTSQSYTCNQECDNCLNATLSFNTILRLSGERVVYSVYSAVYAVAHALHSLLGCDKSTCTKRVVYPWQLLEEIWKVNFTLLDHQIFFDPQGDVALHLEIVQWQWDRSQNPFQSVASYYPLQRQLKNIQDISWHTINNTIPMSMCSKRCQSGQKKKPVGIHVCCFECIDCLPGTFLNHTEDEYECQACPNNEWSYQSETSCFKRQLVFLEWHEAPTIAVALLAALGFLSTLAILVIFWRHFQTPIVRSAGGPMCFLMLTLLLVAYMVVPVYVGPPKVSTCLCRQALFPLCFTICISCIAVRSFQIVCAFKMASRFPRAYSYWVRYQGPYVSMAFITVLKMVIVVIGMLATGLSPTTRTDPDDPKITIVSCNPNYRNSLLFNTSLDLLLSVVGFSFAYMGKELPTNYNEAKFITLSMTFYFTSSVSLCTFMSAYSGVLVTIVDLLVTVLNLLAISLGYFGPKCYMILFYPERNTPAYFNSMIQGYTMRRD
T1 sequence (Q7RTX0 21-852): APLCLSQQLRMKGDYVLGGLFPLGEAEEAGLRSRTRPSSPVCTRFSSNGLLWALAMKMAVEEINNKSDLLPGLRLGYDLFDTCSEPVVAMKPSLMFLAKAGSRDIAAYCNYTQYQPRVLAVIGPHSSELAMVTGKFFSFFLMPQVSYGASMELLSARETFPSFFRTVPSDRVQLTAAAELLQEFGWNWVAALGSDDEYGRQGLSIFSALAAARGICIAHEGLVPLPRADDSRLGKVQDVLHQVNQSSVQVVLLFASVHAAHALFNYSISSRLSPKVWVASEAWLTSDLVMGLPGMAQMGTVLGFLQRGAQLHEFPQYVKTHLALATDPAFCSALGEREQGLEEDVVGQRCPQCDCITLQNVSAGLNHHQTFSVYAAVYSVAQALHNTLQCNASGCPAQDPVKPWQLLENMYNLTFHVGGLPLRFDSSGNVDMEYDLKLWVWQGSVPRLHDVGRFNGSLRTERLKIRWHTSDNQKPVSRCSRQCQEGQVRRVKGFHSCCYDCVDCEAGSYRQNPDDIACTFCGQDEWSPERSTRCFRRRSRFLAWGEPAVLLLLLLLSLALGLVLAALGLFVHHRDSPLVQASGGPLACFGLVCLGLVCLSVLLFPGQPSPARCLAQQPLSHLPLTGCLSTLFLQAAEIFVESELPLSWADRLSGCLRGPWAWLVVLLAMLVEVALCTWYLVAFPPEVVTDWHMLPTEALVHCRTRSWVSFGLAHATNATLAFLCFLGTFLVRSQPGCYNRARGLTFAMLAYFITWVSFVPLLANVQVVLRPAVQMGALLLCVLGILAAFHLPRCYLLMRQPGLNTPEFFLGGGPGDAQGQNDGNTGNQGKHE
Procedure: hT1R2/R3-HEK293 Ga15 cells were seeded in 384-well-clear bottom plates (Fisher) at a density of ˜32,000 cells/well and grown overnight. On the day of the experiment, hT1R2/R3-HEK293 Ga15 were loaded with the calcium indicator Fluo3AM ([…]) (Invitrogen, Carlsbad, Calif.) in D-PBS (Invitrogen, Carlsbad, Calif.) using a Multidrop. Cells were incubated for 1 hour at room temperature and excess dye was washed out with D-PBS using an EMBLA cell washer (Molecular Devices, Sunnyvale, Calif.), leaving a residual volume of […]. […] After 30 minutes of rest time at room temperature, Fluo3AM-loaded cell plates, and the sweetener/compound plate mixture were loaded into a Fluorometric Imaging Plate Reader (FLIPR) (Molecular Devices, Sunnyvale, Calif.). Imaging was performed using a 480 nm excitation and a 535 emission and was initiated with the acquisition of the baseline fluorescence for a period of 7 seconds. […] Raw fluorescence counts were then normalized in each well (using custom made data import software) by calculating delta F/f values (maximum fluorescent count obtained after stimulation—minimal fluorescent count obtained before stimulation/minimal fluorescent count obtained before stimulation). EC50s were determined using a non-linear regression algorithm (GraphPad PRISM, San Diego, Calif.), where the Hill slope, bottom asymptotes and top asymptotes were allow to vary. […]

Work on `Cc1nc2cccc(OCC(C)(C)NC(=O)c3cccc(O)c3)c2c(N)c1C(=O)O` [Example 25, 4-amino-5-(2-(3-hydroxybenzamido)-2-methylpropoxy)-2-methylquinoline-3-carboxylic acid] yielded a melting point of 195 to 198 °C.
With `OC[C@H]1O[C@@](CO)(O[C@H]2O[C@H](CO)[C@@H](O)[C@H](O)[C@H]2O)[C@@H](O)[C@@H]1O` [Sucrose, sucrose] the “Sample selected as sweeter by panelists, Total” value (shortened to “Sample selected as sweeter”) (human panelists [1]; pair: 1% sucrose vs LSB + 25 uM Compound A, total 45) was 44, the “Sample selected as sweeter” value (human panelists [1]; pair: 1% sucrose vs LSB + 25 uM Compound I3, total 42) was 36 and the “Sample selected as sweeter” value (human panelists [1]; pair: 1% sucrose vs LSB + 33 uM Compound C1, total 22) was 18. For the same molecule, the “Sample selected as sweeter” value (human panelists [1]; pair: 1% sucrose vs LSB + 36.5 uM Compound B4, total 45) was 44, the “Sample selected as sweeter” value (human panelists [1]; pair: 1% sucrose vs LSB + 45 uM Compound J, total 48) was 47 and the “Sample selected as sweeter” value (human panelists [1]; pair: 10% sucrose vs 6% sucrose + 25 uM Compound A, total 48) was 28. For the same molecule, the “Sample selected as sweeter” value (human panelists [1]; pair: 10% sucrose vs 6% sucrose + 36.5 uM Compound B4, total 26) was 10, the “Sample selected as sweeter” value (human panelists [1]; pair: 10% sucrose vs 6% sucrose + 45 uM Compound J, total 42) was 17 and the “Sample selected as sweeter” value (human panelists [1]; pair: 12% sucrose vs 6% sucrose + 25 uM Compound I3, total 42) was 18. For the same molecule, the “Sample selected as sweeter” value (human panelists [1]; pair: 12% sucrose vs 6% sucrose + 33 uM Compound C1, total 30) was 17, the Average sweetness (human panelists [2]; 6% sucrose alone (reference)) was 6.6 and 6.5 and 6.3 and 6.2 and 6.1 and 6.4 and the Average sweetness (human panelists [2]; 8% sucrose alone (reference)) was 8.2 and 8.1 and 7.8 and 7.9 and 8.4. The Average sweetness (human panelists [2]; 9% sucrose alone (reference)) was 9.2 and 8.4 and 8.6 and 8.5, the Average sweetness (human panelists [2]; 10% sucrose alone (reference)) was 9.7 and 9.5 and 9.2 and 9.0 and 9.6 and 10.3 and the Average sweetness (human panelists [2]; 12% sucrose alone (reference)) was 10.9.
In the case of `Cc1nc2cccc(OCC(C)(C)NC(=O)c3ccncc3)c2c(N)c1C(=O)O` [Example 24, 4-amino-5-(2-(isonicotinamido)-2-methylpropoxy)-2-methylquinoline-3-carboxylic acid], the melting point is reported as 195 to 198 °C.
With `OC[C@H]1O[C@H](O[C@]2(CCl)O[C@H](CCl)[C@@H](O)[C@@H]2O)[C@H](O)[C@@H](O)[C@H]1Cl` [sucralose] the Average sweetness (human panelists [2]; 50 ppm sucralose alone (reference)) was 3.9, the Average sweetness (human panelists [2]; 100 ppm sucralose alone (reference)) was 5.9 and 5.5 and the Average sweetness (human panelists [2]; 200 ppm sucralose alone (reference)) was 8.7 and 9.1. The Average sweetness (human panelists [2]; 300 ppm sucralose alone (reference)) was 10.2.
With `CCCNC(=O)C(C)(C)COc1cccc2nc(CC)c(C(=O)O)c(N)c12` [Compound Q, 4-amino-5-(2,2-dimethyl-3-oxo-3-(propylamino)propoxy)-2-ethyl-quinoline-3-carboxylic acid] the “EC50 Ratio (50 μM)” value (hT1R2/R3) was 3.4.
In the case of `CCC(CC)COc1cccc2nc(C)c(C(=O)O)c(N)c12` [Example 22, 4-amino-5-(2-ethylbutoxy)-2-methylquinoline-3-carboxylic acid], the melting point is reported as 145 to 151 °C.
Work on `Cc1nc2cccc(OC3CCCCC3)c2c(N)c1C(=O)O` [Example 36, 4-amino-5-(cyclohexyloxy)-2-methylquinoline-3-carboxylic acid] yielded a melting point of 220 to 221.5 °C.
Work on `Cc1nc2cccc(OCC(C)C)c2c(N)c1C(=O)O` [Example 41, 4-amino-5-isobutoxy-2-methylquinoline-3-carboxylic acid] yielded a melting point of 203.7 °C.
